The results in this text go back to US20250160327A1, “USE OF CHROMENE OR CHROMANE DERIVATIVES AS HERBICIDAL AGENTS” (ECOLE POLYTECHNIQUE, priority 2022, published 2025).

This assay concerns Arabidopsis thaliana ecotype Col-0 seedlings. Briefly: Phytotoxicity test on Arabidopsis thaliana seedlings in hydroponics, visual analysis of chlorosis. Format: in vivo. The following applies: for herbicidal activity: at the concentration tested (125 pM), 48 h; for Activity after 48h: herbicidal activity, concentration of 125 pM, 48 h after application, seedlings at the cotyledon stage, max 1% DMSO. How it is done: Biological tests have been carried out under axenic conditions on Arabidopsis thaliana ecotype Col-0 seedlings cultured in hydroponics at the cotyledon stage. Sterilised seeds have been sown in microplates (10 seeds per well containing 200 μL of distilled water) and cultured for 10-13 days at 22° C. under a 16 h/8 h (day/night) photoperiod lighting. The treatment has been carried out by replacing the culture medium with an equivalent volume of water containing the molecule to be tested dissolved in DMSO. The maximum DMSO concentration in the treated wells was 1% by volume. A control has therefore been set up with the presence of DMSO at this concentration. The phytotoxicity of the treatment has been evaluated after 48 h of culture, by visual analysis of the chlorosis induced.
By way of comparison, tests have also been carried out under the same conditions as for compounds (Ia1), (Ia2), (Ia3) and (IC1), but with two comparative compounds not forming part of the invention: • a compound (2) including a diphenol ring in place of the chromene ring, and • a compound (3) including a chromene ring but not including an -L-Ar group. All compounds have been tested at a concentration of 125 pM.
Herbicidal activity is indicated by A for Active in the event that the plant is killed, i.e. when both cotyledons have lost all their green coloration, 48 h after application of the product.
The absence of herbicidal activity is indicated by “N” for Not active, in the case where no biological activity is observed

For the molecule `Oc1cc(O)cc(CCc2ccccc2)c1` [Compound 2], the herbicidal activity entry was “no herbicidal activity” and the “Activity after 48h” value is listed as “N”.

On to `Cc1cc(O)c2c(c1)OC(C)(C)C=C2` [Compound 3], for which the herbicidal activity entry is given as “no herbicidal activity” and the “Activity after 48h” value is “N”.
